According to US20250129054A1 (Terran Biosciences Inc., priority 2022, published 2025):

How the values were obtained:
[1] = system: rat elevated zero maze model of anxiety; experiment: Rat elevated zero maze model of anxiety (% time on open areas, stretched attend postures); type: in vivo, Sprague-Dawley rats
Source text: The rat zero-maze model is a refined alternative to the plus-maze, the most widely used animal model of anxiety, and consists of an elevated annular platform, divided equally into four quadrants. Two opposite quadrants are enclosed by Perspex walls on both the inner and the outer edges of the platform, while the remaining two opposite quadrants are open being enclosed only by a Perspex “lip”. Animals will show a preference for the closed areas, and avoidance of the open sections is assumed to stem from a rodent's natural aversion to open, exposed spaces. The primary index of anxiety, which reflect changes in open arm preference, is the percentage of time spent on the open areas. A reduction in the amount of activity on the open areas is considered to reflect an increase in anxiety. Other, ethologically-based behaviours are also assessed as indices of anxiety. One of the most important is stretched attend postures (SAP) from closed to open quadrants. […] Shepherd, J K; et al., (1994) Behavioural and pharmacological validation of the elevated “zero-maze” as an animal model of anxiety. Psychopharmacol., 116:56-64.
Male Sprague-Dawley 200-250 g (Envigo UK) rats were used. Animals were group-housed (5 per cage; cage size: 40×40×20 cm) in a temperature-controlled environment (22±2° C.), under a 12 h light-dark cycle (lights on: 08:00 hours) for one week prior to testing. Food and water were freely available. Number of animals per group=5. Animals were moved into the experimental room 16-24 hours before testing.
The elevated 0-maze comprises a black Perspex annular platform (105 cm diameter, 10 cm width) elevated to 65 cm above ground level, divided equally into four quadrants. Two opposite quadrants are enclosed by clear red Perspex walls (27 cm high) on both the inner and outer edges of the platform, while the remaining two opposite quadrants are surrounded only by a Perspex “lip” (1 cm high) which serves as a tactile guide to animals on these open areas.
Subjects were weighed and tail marked before being injected. After a specified pre-treatment time, subjects were placed in a closed quadrant and a 5-min test period were recorded on videotape for subsequent analysis. The maze were cleaned with 5% methanol/water solution and dried thoroughly between test sessions. Behavioural measures comprise percentage time spent on the open areas (% TO) and frequency of stretched attend postures (SAP) from closed to open quadrants. Since the control groups were all treated identically with the same vehicle these were combined to increase power. The Chlordiazepoxide groups were also treated identically with the same dose so these were also combined to increase power. Animals are scored as being in the open area when all four paws were in an open quadrant and in the closed area only when all four paws have passed over the open-closed divide. All testing were carried out between 9.00 and 16.00 hours.
For each study, a 1-way ANOVA was conducted across vehicle, CDP, and drug treatment groups. Each group was compared to the vehicle group and a p-value for treatment determined by Fishers Least Significant Difference (LSD) test. This analysis was performed in GraphPad Prism (Version 9).
Intraperitoneal (IP): Racemic methylone HCl was formulated in Vehicle 1 (Saline) for injection to concentrations of 1, 3 and 6 mg/mL to provide doses of 5, 15 and 30 mg/kg when administered ip in 5 mL/kg dosing volumes.
Intraperitoneal (IP): S-methylone HCl was formulated in Vehicle 1 (Saline) for injection to concentrations of 0.5, 1, 1.5, 3 and 6 mg/mL to provide doses of 2.5, 5, 7.5, 15 and 30 mg/kg when administered ip in 5 mL/kg dosing volumes.
Intraperitoneal (IP): R-methylone HCl was formulated in Vehicle 1 (Saline) for injection to concentrations of 1, 3 and 6 mg/mL to provide doses of 5, 15 and 30 mg/kg when administered ip in 5 mL/kg dosing volumes. […]

[2] = Terminal plasma and brain concentration at the end of the zero maze study; type: in vivo, Sprague-Dawley rats; conditions: 5, 15 and 30 mg/kg ip, male SD rats
Description: Terminal sampling. At the end of the study, terminal blood was collected from 2 of the vehicle treated rats (>5 mL) and from all methylone HCl treated rats (500 uL) by CP under CO2. Blood samples were placed into Eppendorf tubes on ice containing 22 μL/mL blood (vehicle treated) or 11 μL EDTA (93 mg/mL) (Methylone HCl treated rats) and gently mixed. After no longer than 30 min, blood samples were centrifuged at 10,000 rpm×3 min and plasma samples (>2 mL (vehicle) or 2×100 μL (Methylone HCl treated) placed into Eppendorf tubes (Vehicle) or 96 well plates on dry ice. Immediately after blood sampling, brains were excised, rinsed in saline, blotted, weighed and snap-frozen in liquid N2. All samples were stored at −20
Terminal sampling. At the end of the study, terminal blood was collected from 2 of the vehicle treated rats (>5 mL) and from all S-methylone HCl treated rats (500 uL) by CP under CO2. Blood samples were placed into Eppendorf tubes on ice containing 22 μL/mL blood (vehicle treated) or 11 μL EDTA (93 mg/mL) (S-methylone HCl treated rats) and gently mixed. […]

[3] = 30 mg/kg ip, 30 min pretreatment, vs vehicle and chlordiazepoxide 6 mg/kg, male SD rats
[4] = specific (sufficient) doses ip, compared with chlordiazepoxide 6 mg/kg

**Q.** For `CNC(C)C(=O)c1ccc2c(c1)OCO2` (racemic) [racemic methylone], which “time spent in the open arms” value ([1]; 5 mg/kg ip, 30 min pretreatment, vs vehicle, male SD rats) is on record?
**A.** decrease in time spent in the open arms vs placebo

**Q.** What about the “frequency of SAPs” value ([1]; 15 mg/kg ip, 30 min pretreatment, male SD rats) of the same compound?
**A.** dose dependent decrease in SAPs

**Q.** And the “time spent in the open arms” value ([1]; 15 mg/kg ip, 30 min pretreatment, vs vehicle, male SD rats)?
**A.** no difference from placebo

**Q.** What about the “frequency of SAPs” value [1, 3] of the same compound?
**A.** decrease in SAPs

**Q.** And the “time spent in the open arms” value [1, 3]?
**A.** significant decrease in time spent in the open arms

**Q.** What about the anxiogenic effect ([1]; across the doses tested, ip, male SD rats) of the same compound?
**A.** show anxiogenic effects at lower doses

**Q.** What about the “frequency of SAPs” value [1, 4] of the same compound?
**A.** decreased the frequency of SAPs as effectively as the benzodiazepine chlordiazepoxide

**Q.** What about the “time in the open arms” value [1, 4] of the same compound?
**A.** increase time in the open arms

**Q.** What about the “concentration in plasma and brain at the end of the zero maze study” value [2] of the same compound?
**A.** increased in both brain and plasma at the higher doses
